Reference: paper PMC4068829 (Journal of medicinal chemistry, 2013)
Read-outs that look alike come from different tables or passages of the source. One block for each molecule: values may come before it.

What was measured:
[1] = molecular target: T1, MATE1 (Homo sapiens, UniProt Q96FL8); test: High throughput screen
T1 sequence (Q96FL8 1-570): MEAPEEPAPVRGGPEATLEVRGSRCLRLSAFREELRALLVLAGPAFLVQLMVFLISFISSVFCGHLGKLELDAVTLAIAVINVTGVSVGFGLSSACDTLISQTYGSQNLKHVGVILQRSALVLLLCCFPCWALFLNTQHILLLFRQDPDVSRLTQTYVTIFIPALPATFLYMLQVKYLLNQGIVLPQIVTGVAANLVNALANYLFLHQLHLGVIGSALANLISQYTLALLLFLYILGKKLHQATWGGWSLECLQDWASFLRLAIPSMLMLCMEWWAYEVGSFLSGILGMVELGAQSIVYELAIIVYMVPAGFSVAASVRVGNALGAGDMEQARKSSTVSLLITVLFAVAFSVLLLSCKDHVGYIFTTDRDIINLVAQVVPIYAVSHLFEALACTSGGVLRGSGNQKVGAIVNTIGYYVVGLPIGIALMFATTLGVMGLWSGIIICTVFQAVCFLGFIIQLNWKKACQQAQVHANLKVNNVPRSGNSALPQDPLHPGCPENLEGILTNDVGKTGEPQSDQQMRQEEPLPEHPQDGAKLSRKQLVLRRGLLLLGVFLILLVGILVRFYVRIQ

[2] = cited from earlier work
[3] = molecular target: human MATE2-K (Homo sapiens, UniProt Q86VL8); assay type: cell-based; details: for did not inhibit MATE2-K up to: highest concentration without inhibition, data not shown
Sequence of human MATE2-K (Q86VL8 1-566 isoform Q86VL8-3): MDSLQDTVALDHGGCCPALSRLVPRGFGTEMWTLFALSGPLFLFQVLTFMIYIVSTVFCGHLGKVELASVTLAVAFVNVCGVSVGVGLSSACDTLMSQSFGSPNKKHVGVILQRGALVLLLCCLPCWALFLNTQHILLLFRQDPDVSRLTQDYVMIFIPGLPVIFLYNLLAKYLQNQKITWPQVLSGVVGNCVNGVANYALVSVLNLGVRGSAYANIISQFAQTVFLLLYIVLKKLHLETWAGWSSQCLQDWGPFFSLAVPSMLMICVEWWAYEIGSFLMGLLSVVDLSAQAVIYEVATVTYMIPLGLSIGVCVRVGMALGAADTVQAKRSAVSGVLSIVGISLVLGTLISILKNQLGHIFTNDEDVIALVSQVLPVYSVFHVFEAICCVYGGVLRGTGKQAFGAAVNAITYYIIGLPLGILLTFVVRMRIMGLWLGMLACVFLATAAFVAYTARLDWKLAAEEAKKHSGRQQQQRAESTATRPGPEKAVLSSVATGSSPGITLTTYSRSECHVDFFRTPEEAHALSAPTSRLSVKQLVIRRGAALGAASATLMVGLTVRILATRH

[4] = molecular target: T1, MATE1; assay type: cell-based
[5] = molecular target: T1, MATE1; test: 14C-metformin uptake in HEK293 cells stably expressing MATE1
[6] = molecular target: T1, MATE1
[7] = ref 53 (Micromedex); cited from earlier work
[8] = molecular target: T2, human OCT2 (Homo sapiens, UniProt O15244); assay type: cell-based
T2 sequence (O15244 1-555): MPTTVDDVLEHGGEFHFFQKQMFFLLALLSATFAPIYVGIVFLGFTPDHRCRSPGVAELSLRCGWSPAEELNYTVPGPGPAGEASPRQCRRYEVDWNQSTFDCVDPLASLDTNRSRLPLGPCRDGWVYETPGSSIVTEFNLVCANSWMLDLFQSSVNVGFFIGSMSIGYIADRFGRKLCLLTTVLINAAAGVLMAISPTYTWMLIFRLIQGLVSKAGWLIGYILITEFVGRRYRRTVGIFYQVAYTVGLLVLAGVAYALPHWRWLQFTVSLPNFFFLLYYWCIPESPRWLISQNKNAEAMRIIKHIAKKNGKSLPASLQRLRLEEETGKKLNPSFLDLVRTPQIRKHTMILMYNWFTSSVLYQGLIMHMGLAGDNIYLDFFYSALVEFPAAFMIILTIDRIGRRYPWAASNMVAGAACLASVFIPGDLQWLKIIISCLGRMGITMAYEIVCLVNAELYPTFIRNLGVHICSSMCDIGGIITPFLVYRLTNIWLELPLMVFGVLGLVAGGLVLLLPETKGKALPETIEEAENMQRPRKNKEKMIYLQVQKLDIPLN

[9] = molecular target: T1, MATE1; test: in vitro; details: HEK cells stably overexpressing MATE1, pH 7.4
[10] = clinical plasma concentration, ref 54-58 (a-e)

IC50 [1]: 19.7 µM
SMILES: CC[C@@]1(O)C(=O)OCc2c1cc1n(c2=O)Cc2cc3c(CN(C)C)c(O)ccc3nc2-1 [Topotecan]

IC50 [1]: 3.1 µM
SMILES: [H]/N=C(\N/C(=N/[H])NCCCCCCNC(=N)NC(=N)Nc1ccc(Cl)cc1)Nc1ccc(Cl)cc1 [Chlorhexidine]

SMILES: O=C1c2c(O)ccc(O)c2C(=O)c2c(NCCNCCO)ccc(NCCNCCO)c21 [Mitoxantrone]
Cmax ([2]; in vivo): 630 nM

IC50 [1]: 13.5 µM
SMILES: C#C[C@]1(O)CC[C@H]2[C@@H]3CCc4cc(O)ccc4[C@H]3CC[C@@]21C [Ethinyl estradiol]

SMILES: NC1=NCC2c3ccccc3Cc3ccccc3N12 (stereo not drawn) [Epinastine]
IC50 [1]: 0.6 µM

SMILES: CN1C[C@H](C(=O)N[C@]2(C)O[C@@]3(O)[C@@H]4CCCN4C(=O)[C@H](Cc4ccccc4)N3C2=O)C[C@@H]2c3cccc4[nH]cc(c34)C[C@H]21 [Dihydroergotamine]
IC50 [1]: 8 µM

SMILES: CCc1c2c(nc3ccc(OC(=O)N4CCC(N5CCCCC5)CC4)cc13)-c1cc3c(c(=O)n1C2)COC(=O)[C@]3(O)CC [Irinotecan]
Cmax ([2]; in vivo): 4600 nM

did not inhibit MATE2-K up to [3]: > 500 µM
SMILES: COc1ccccc1OCCNCC(O)COc1cccc2[nH]c3ccccc3c12 (stereo not drawn) [Carvedilol]

SMILES: CC(C)(C)NC(=O)[C@@H]1CN(Cc2cccnc2)CCN1C[C@@H](O)C[C@@H](Cc1ccccc1)C(=O)N[C@H]1c2ccccc2C[C@H]1O [Indinavir]
Cmax [2, 10]: 9800 nM

Cmax,unbound/ IC50 of MATE1, ASP^+ ([4]; ratio, IC50 with ASP+ in HEK293-MATE1, clinical relevance threshold ≥ 0.1): 0.51
IC50 [5]: 0.09 µM
Cmax,unbound/ IC50 of MATE1, Metformin ([5]; ratio, IC50 with 14C-metformin in HEK293-MATE1, threshold ≥ 0.1): 4.34
IC50 [6]: 0.16 µM
Cmax,unbound/ IC50 of MATE1, Metformin Polarized Cells ([6]; ratio, IC50 with 14C-metformin in polarized MDCK-hMATE1, threshold ≥ 0.1): 2.44
SMILES: NC(N)=Nc1nc(CSCCC(N)=NS(N)(=O)=O)cs1 [Famotidine]
Cmax ([2]; in vivo): 460 nM

SMILES: N=C(N)c1ccc(OCCCCCOc2ccc(C(=N)N)cc2)cc1 [Pentamidine]
Cmax ([2]; in vivo): 730 nM

did not inhibit MATE2-K up to [3]: > 500 µM
SMILES: COc1ccc2c(c1OC)C(=O)O[C@@H]2[C@H]1c2c(cc3c(c2OC)OCO3)CCN1C [Noscapine]

IC50 ([1]; read-out: prIC50, predicted IC50 estimated from screening inhibition at 20 μM): 0.8 µM
SMILES: CCOC(=O)c1ccc(OC(=O)CCCCCNC(=N)N)cc1 [Gabaxate]

SMILES: COc1ccnc(C[S+]([O-])c2nc3ccc(OC(F)F)cc3[nH]2)c1OC (stereo not drawn) [Pantoprazole]
Protein Binding [% bound] [7]: 98 % bound

IC50 [8]: 182 µM
IC50 [4]: 11.1 µM
IC50 [3]: 125 µM
IC50 [1]: 16 µM
inhibition at 20 µM ([1]; human, HEK cells stably overexpressing MATE1, pH 7.4, probe ASP+ (5 µM)): 56 ± 1%
SMILES: CO[C@@H]1[C@@H](O[C@@H]2O[C@H](C)[C@@H](O[C@H]3C[C@@](C)(O)[C@@H](OC(=O)CC(C)C)[C@H](C)O3)[C@H](N(C)C)[C@H]2O)[C@@H](CC=O)C[C@@H](C)[C@@H](O)/C=C/C=C/C[C@@H](C)OC(=O)C[C@H]1O [Leucomycin]

SMILES: CN(C)c1ccc(/C=C/c2cc[n+](C)cc2)cc1 [ASP^+, 4-(4-(Dimethylamino)styryl)-N-methylpyridinium iodide]
Km at […] [9]: 34 µM

IC50 [1]: 9.9 µM
SMILES: CN1C2CCCC1CC(NC(=O)c1nn(C)c3ccccc13)C2 (stereo not drawn) [Granisetron]

SMILES: Cc1nccn1CC1CCc2c(c3ccccc3n2C)C1=O (stereo not drawn) [Ondansetron]
Cmax [2, 10]: 440 nM
Protein Binding [% bound] [7]: 73 % bound

SMILES: COc1cc2c3cc1Oc1cc(ccc1O)C[C@@H]1c4c(cc(OC)c(O)c4Oc4ccc(cc4)C[C@@H]3N(C)CC2)CC[N+]1(C)C [Tubocurarine]
Cmax,unbound /IC50 (MATE1, text) [4]: 0.07
IC50 [1]: 1.1 µM
